# Data taken from patent US8957060B2, “Tumescent antibiotic solution” (priority 2004, dated 2015).
# Read-outs that look alike come from different tables or passages of the source.
# Tests used:
# [1] = tested on: Staphyloccus aureus (MRSA) ATCC 33592; assay: Minimum Inhibitory Concentration (MIC), dilution method; conditions: Staphylococcus aureus, 48 h, read-out: MIC end point
# Procedure: Following inoculation, survival of test microorganisms was determined. This method of determining MIC was based on the method described in the NCCLS document M7: Methods for Dilution Antimicrobial Susceptibility Tests for Bacteria that Grow Aerobically; Approved Standard—Seventh Edition.
# [2] = tested on: Staphyloccus aureus (MRSA) ATCC 33592; assay: Minimum Bactericidal Concentration (MBC); assay type: cell-based; conditions: Staphylococcus aureus, read-out: MBC end point
# From the text: Determinations of MBC followed the method described in “Report on the Working Party on Antibiotic Sensitivity Testing of the British Society of Antimicrobial Chemotherapy: A Guide to Sensitivity Testing.”
# [3] = cited from earlier work
# [4] = tested on: platelet aggregation induced by ADP, epinephrine and collagen; conditions: cited from earlier work
# [5] = cited from earlier work; remark: listed apart in the source
# [6] = Pharmacokinetics of TAD vs IVAD (cefazolin, metronidazole): AUC and Cmax in TISF and serum
# Procedure: A clinical pharmacologic investigation was conducted to compare the pharmacokinetic advantages of two modes of systemic antibiotic delivery, Tumescent antibiotic delivery (TAD), which involves the delivery of a relatively large volume of an antibiotic-containing solution to the subcutaneous compartment, and intravenous antibiotic delivery (IVAD), which results in direct delivery of antibiotics to the blood stream, for prophylaxis of SSI. […] Methods
# With Institutional Review Board (IRB) approval, the absorption pharmacokinetics of tumescent antibiotic delivery (TAD) and intravenous antibiotic delivery (IVAD) were tested in human subjects and the antibiotic delivery modes were evaluated with respect to the area under the curve (AUC) of antibiotic concentration as a function of time and peak antibiotic concentration (Cmax) in serum and TISF. 4 female subjects participated in at least one study, one subject volunteered for 2 separate studies. 5 studies were conducted: 3 involved TAD to the abdomen, 1 involved TAD to the hips and outer thighs and 1 involved TAD to the breasts. […] Each of the 5 studies consisted of 2 to 3 pharmacokinetic procedures, for a total of 14 procedures. Any procedures conducted on an individual subject were separated by at least one week. In 13 procedures only IVAD or TAD, was used. In one procedure both IVAD and TAD were used concurrently, with IVAD started and finished within five minutes after completing TAD.
# TAD was conducted as described herein. Following TAD, sequential 10 ml samples of tumescent adipose tissue were obtained using a hand-held syringe-liposuction technique. Sampling began immediately after completing the TAD infiltration (T0), and continuing until the patients reported significant discomfort. Liposuction aspirate samples were obtained at 0, 1, 2, 3, 4, 6, and 8 hours in all procedures; in 4 TAD procedures, sampling continued until 10 hours. Sequential serum samples for measurement of antibiotic concentration in serum after TAD ([Serum]TAD) were obtained simultaneously.
# For IVAD, the antibiotic was delivered into an antecubital vein. […]
smiles,measurement,setting,value
Cc1nnc(SCC2=C(C(=O)O)N3C(=O)[C@@H](NC(=O)Cn4cnnn4)[C@H]3SC2)s1 [Cefazolin],MIC,[1],250 µg/mL
same,MBC,"[2]; 24 h, Day 1",250 µg/mL
same,MBC,"[2]; 48 h, Day 2",250 µg/mL
CCN(CC)CC(=O)Nc1c(C)cccc1C [Lidocaine],dosage limitation approved by the FDA,"[3]; infiltration local anesthesia, commercial lidocaine (1%) with epinephrine (1:100,000)",7 mg/kg
same,maximum safe mg/kg dosage (estimated),"[3]; tumescent lidocaine, TLA without liposuction, adults",30 mg/kg
same,concentration that consistently inhibits in-vitro platelet aggregation,"[4]; aggregation induced by ADP, epinephrine and collagen",≥ 0.5 mg/mL
same,safe systemic concentration with no effect on platelet aggregation,[4],≤ 6 micrograms/ml
same,duration of local anesthesia,[5]; 1% or 2% commercial concentrations of lidocaine with epinephrine,2 to 3 h
same,persistence of profound surgical local anesthesia,[5]; tumescent local anesthesia (TLA),6 to 8 h
Cc1ncc([N+](=O)[O-])n1CCO [Metronidazole],AUC[Serum]IVAD,"[6]; Study 5, 600 mg metronidazole IVAD",127
same,period in which serum concentration of metronidazole exceeds 4 μg/ml,"[6]; female, human, in vivo",0 to 12 h
CO[C@@]1(NC(=O)Cc2cccs2)C(=O)N2C(C(=O)O)=C(COC(N)=O)CS[C@@H]21 [cefoxitin],times greater antibiotic exposure in ISF by TAD than by IVAD (150×AUC[ISF]IVAD<AUC[TISF]TAD),"[6]; human, in vivo",150
